Data: PubChem BioAssay (NCI)
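Grown in 96-well plates, cells were treated for 48 hours with each compound at five concentrations. Insufficient inhibition: endpoint recorded as highest concentration tested. GI50 is the concentration that inhibits growth by half. Definition used: TGI = concentration required for complete inhibition of growth.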

How the values were obtained:
Test in all cases: inhibition of tumour cell growth, NCI panel, 48 h
786-0 renal = test system: 786-0 renal
A498 renal = test system: A498 renal
A549 NSCLC = test system: A549 NSCLC
ACHN renal = test system: ACHN renal
BT-549 breast = test system: BT-549 breast
CAKI-1 renal = test system: CAKI-1 renal
CCRF-CEM leukemia = test system: CCRF-CEM leukemia
COLO 205 colon = test system: COLO 205 colon
DU-145 prostate = test system: DU-145 prostate
EKVX NSCLC = test system: EKVX NSCLC
HCC-2998 colon = test system: HCC-2998 colon
HCT-116 colon = test system: HCT-116 colon
HCT-15 colon = test system: HCT-15 colon
HL-60(TB) leukemia = test system: HL-60(TB) leukemia
HOP-62 NSCLC = test system: HOP-62 NSCLC
HOP-92 NSCLC = test system: HOP-92 NSCLC
HS 578T breast = test system: HS 578T breast
HT29 colon = test system: HT29 colon
IGROV1 ovarian = test system: IGROV1 ovarian
K-562 leukemia = test system: K-562 leukemia
KM12 colon = test system: KM12 colon
LOX IMVI melanoma = test system: LOX IMVI melanoma
M14 melanoma = test system: M14 melanoma
MALME-3M melanoma = test system: MALME-3M melanoma
MCF7 breast = test system: MCF7 breast
MDA-MB-231 breast = test system: MDA-MB-231 breast
MDA-MB-435 = test system: MDA-MB-435
MOLT-4 leukemia = test system: MOLT-4 leukemia
NCI-H226 lung = test system: NCI-H226 lung
NCI-H23 lung = test system: NCI-H23 lung
NCI-H460 lung = test system: NCI-H460 lung
NCI/ADR-RES ovarian = test system: NCI/ADR-RES ovarian
OVCAR-3 ovarian = test system: OVCAR-3 ovarian
OVCAR-4 ovarian = test system: OVCAR-4 ovarian
OVCAR-5 ovarian = test system: OVCAR-5 ovarian
OVCAR-8 ovarian = test system: OVCAR-8 ovarian
PC-3 prostate = test system: PC-3 prostate
RPMI-8226 leukemia = test system: RPMI-8226 leukemia
RXF 393 renal = test system: RXF 393 renal
SF-268 CNS = test system: SF-268 CNS
SF-295 CNS = test system: SF-295 CNS
SF-539 CNS = test system: SF-539 CNS
SK-MEL-2 melanoma = test system: SK-MEL-2 melanoma
SK-MEL-28 melanoma = test system: SK-MEL-28 melanoma
SK-MEL-5 melanoma = test system: SK-MEL-5 melanoma
SK-OV-3 ovarian = test system: SK-OV-3 ovarian
SN12C renal = test system: SN12C renal
SNB-19 CNS = test system: SNB-19 CNS
SNB-75 CNS = test system: SNB-75 CNS
SR leukemia = test system: SR leukemia
SW-620 colon = test system: SW-620 colon
T-47D breast = test system: T-47D breast
TK-10 renal = test system: TK-10 renal
U251 CNS = test system: U251 CNS
UACC-257 melanoma = test system: UACC-257 melanoma
UACC-62 melanoma = test system: UACC-62 melanoma
UO-31 renal = test system: UO-31 renal

Work on O=C(Nc1cc(Cl)cc(Cl)c1)Nc1nc2ccc([N+](=O)[O-])cc2s1 yielded a GI50 (786-0 renal) of 1.47 µM, a TGI (786-0 renal) of 5.86 µM and a GI50 (A498 renal) of 0.287 µM. For the same compound, the TGI (A498 renal) was 1.04 µM, the GI50 (A549 NSCLC) was 1.7 µM and the TGI (A549 NSCLC) was > 100 µM. It also gave a GI50 (ACHN renal) of 1.37 µM, a TGI (ACHN renal) of 21.8 µM and a GI50 (BT-549 breast) of 1.68 µM. The TGI (BT-549 breast) was 4.66 µM, the GI50 (CAKI-1 renal) was 0.992 µM and the TGI (CAKI-1 renal) was 8.47 µM. For the same compound, the GI50 (CCRF-CEM leukemia) was 0.429 µM, the TGI (CCRF-CEM leukemia) was 3.88 µM and the GI50 (COLO 205 colon) was 0.646 µM. For the same compound, the TGI (COLO 205 colon) was 2.21 µM, the GI50 (DU-145 prostate) was 1.72 µM and the TGI (DU-145 prostate) was > 100 µM. It also gave a GI50 (EKVX NSCLC) of 1.14 µM, a TGI (EKVX NSCLC) of 7.63 µM and a GI50 (HCC-2998 colon) of 0.503 µM. It also gave a TGI (HCC-2998 colon) of 4.07 µM, a GI50 (HCT-116 colon) of 0.57 µM and a TGI (HCT-116 colon) of 4.76 µM. The GI50 (HCT-15 colon) was 0.769 µM, the TGI (HCT-15 colon) was > 100 µM and the GI50 (HL-60(TB) leukemia) was 0.714 µM. The TGI (HL-60(TB) leukemia) was 2.86 µM, the GI50 (HOP-62 NSCLC) was 1.78 µM and the TGI (HOP-62 NSCLC) was 5.5 µM. The GI50 (HOP-92 NSCLC) was 0.212 µM, the TGI (HOP-92 NSCLC) was 0.67 µM and the GI50 (HS 578T breast) was 0.999 µM. For the same compound, the TGI (HS 578T breast) was 4.72 µM, the GI50 (HT29 colon) was 1.61 µM and the TGI (HT29 colon) was > 100 µM. For the same compound, the GI50 (IGROV1 ovarian) was 1.77 µM, the TGI (IGROV1 ovarian) was 84.5 µM and the GI50 (K-562 leukemia) was 0.504 µM. The TGI (K-562 leukemia) was > 24.3 µM, the GI50 (KM12 colon) was 1.16 µM and the TGI (KM12 colon) was 7.33 µM. For the same compound, the GI50 (LOX IMVI melanoma) was 0.839 µM, the TGI (LOX IMVI melanoma) was 2.44 µM and the GI50 (M14 melanoma) was 1.88 µM. It also gave a TGI (M14 melanoma) of 5.79 µM, a GI50 (MALME-3M melanoma) of 0.518 µM and a TGI (MALME-3M melanoma) of 5.72 µM. For the same compound, the GI50 (MCF7 breast) was 0.717 µM, the TGI (MCF7 breast) was > 100 µM and the GI50 (MDA-MB-231 breast) was 1.19 µM. It also gave a TGI (MDA-MB-231 breast) of 4.12 µM, a GI50 (MDA-MB-435) of 1.51 µM and a TGI (MDA-MB-435) of 6.77 µM. The GI50 (MOLT-4 leukemia) was 0.685 µM, the TGI (MOLT-4 leukemia) was 3.23 µM and the GI50 (NCI-H226 lung) was 1.04 µM. The TGI (NCI-H226 lung) was 3.15 µM, the GI50 (NCI-H23 lung) was 0.378 µM and the TGI (NCI-H23 lung) was 2.31 µM. For the same compound, the GI50 (NCI-H460 lung) was 1.48 µM, the TGI (NCI-H460 lung) was > 100 µM and the GI50 (NCI/ADR-RES ovarian) was 0.8 µM. For the same compound, the TGI (NCI/ADR-RES ovarian) was 6.2 µM, the GI50 (OVCAR-3 ovarian) was 0.722 µM and the TGI (OVCAR-3 ovarian) was 8.2 µM. For the same compound, the GI50 (OVCAR-4 ovarian) was 0.583 µM, the TGI (OVCAR-4 ovarian) was > 100 µM and the GI50 (OVCAR-5 ovarian) was 2.65 µM. The TGI (OVCAR-5 ovarian) was > 100 µM, the GI50 (OVCAR-8 ovarian) was 1.74 µM and the TGI (OVCAR-8 ovarian) was > 100 µM. For the same compound, the GI50 (PC-3 prostate) was 0.568 µM, the TGI (PC-3 prostate) was > 100 µM and the GI50 (RPMI-8226 leukemia) was 0.376 µM. It also gave a TGI (RPMI-8226 leukemia) of 1.59 µM, a GI50 (RXF 393 renal) of 0.558 µM and a TGI (RXF 393 renal) of 2.17 µM. For the same compound, the GI50 (SF-268 CNS) was 1.61 µM, the TGI (SF-268 CNS) was > 100 µM and the GI50 (SF-295 CNS) was 0.524 µM. The TGI (SF-295 CNS) was 1.92 µM, the GI50 (SF-539 CNS) was 1.18 µM and the TGI (SF-539 CNS) was 5.43 µM. It also gave a GI50 (SK-MEL-2 melanoma) of 0.771 µM, a TGI (SK-MEL-2 melanoma) of 3.83 µM and a GI50 (SK-MEL-28 melanoma) of 1.03 µM. For the same compound, the TGI (SK-MEL-28 melanoma) was 3.58 µM, the GI50 (SK-MEL-5 melanoma) was 0.446 µM and the TGI (SK-MEL-5 melanoma) was 1.66 µM. It also gave a GI50 (SK-OV-3 ovarian) of 1.45 µM, a TGI (SK-OV-3 ovarian) of 5.6 µM and a GI50 (SN12C renal) of 0.752 µM. For the same compound, the TGI (SN12C renal) was 5.62 µM, the GI50 (SNB-19 CNS) was 1.19 µM and the TGI (SNB-19 CNS) was 25.7 µM. The GI50 (SNB-75 CNS) was 1.04 µM, the TGI (SNB-75 CNS) was 3.83 µM and the GI50 (SR leukemia) was 0.32 µM. It also gave a TGI (SR leukemia) of 2.1 µM, a GI50 (SW-620 colon) of 1.63 µM and a TGI (SW-620 colon) of 85.7 µM. The GI50 (T-47D breast) was 0.571 µM, the TGI (T-47D breast) was 6.15 µM and the GI50 (TK-10 renal) was 2.21 µM. For the same compound, the TGI (TK-10 renal) was 13.3 µM, the GI50 (U251 CNS) was 0.909 µM and the TGI (U251 CNS) was > 100 µM. The GI50 (UACC-257 melanoma) was 0.95 µM, the TGI (UACC-257 melanoma) was 4.84 µM and the GI50 (UACC-62 melanoma) was 0.569 µM. For the same compound, the TGI (UACC-62 melanoma) was 2.21 µM, the GI50 (UO-31 renal) was 0.708 µM and the TGI (UO-31 renal) was 2.8 µM.
